Results published in patent publication EP4813463A2, “TYK2 INHIBITORS AND COMPOSITIONS AND METHODS THEREOF” (Lynk Pharmaceuticals Co. Ltd., priority 2023, dated 2024).
Like-named read-outs stand apart in the source and are kept apart here.

Key:
JAK1-JH2 domain = biological target: T1, JAK1-JH2 domain (Homo sapiens, UniProt P23458); assay: Binding activity test for JH2 domain of JAK1 (Tb-antibody/tracer FRET); conditions: JH2 domain enzyme; 60 min at 25°C, then 4°C overnight; read-out: JAK1 JH2 Binding IC50
T1 construct: JAK1-JH2 domain or TYK2-JH2 domain enzyme in assay buffer
Method: Binding Activity test for JH2 domain of JAK1 and TYK2 […] Add 8μL/well in echo source plate, echo will add 75nL/well with 3-fold serial dilution for 11 points in assay plate. 75nL DMSO for high control and low control. […] For low control, add 5μL/well assay buffer. And then spin down at 1000rpm and centrifuge for 30 seconds. After enzyme system prepared, add 5μL of Tb-antibody solution into each well of assay plate. Spin down at 1000 rpm and centrifuge for 30sec. After Tb-antibody added, also add 5μL of tracer into the assay plate. Spin down at 1000rpm and centrifuge for 30sec. Incubate for […] at 25°C firstly and then continue to incubate the plate at 4°C overnight. Read by envision in FRET mode. The Luminescence value was recorded by a multi-label reader Envision (PerkinElmer). […] Table 2. IC50 on JH2 domain activity (nM)

TYK2-JH2 domain = biological target: T2, TYK2-JH2 domain (Homo sapiens, UniProt P29597); assay: Binding activity test for JH2 domain of TYK2 (Tb-antibody/tracer FRET); conditions: for IC50: JH2 domain enzyme, 60 min at 25°C, then 4°C overnight, read-out: TYK2 JH2 Binding IC50; for JAK1/TYK2 selectivity: ratio of JAK1 JH2 to TYK2 JH2 binding IC50
T2 construct: JAK1-JH2 domain or TYK2-JH2 domain enzyme in assay buffer
Outline: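 Competitive TR-FRET binding: compounds dispensed as an 11-point 3-fold dilution series, then Tb-labelled antibody and tracer added to the JH2 protein system. Incubated at 25°C, then overnight at 4°C; FRET signal read on Envision and IC50 (nM) derived.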

[1] = test system: Ba/F3-FL-TYK2-P760L cells; assay: Anti-proliferative assay in engineered Ba/F3 cells (Cell-Titer Glo, 72 h); assay type: cell-based; conditions: 72 h compound treatment, concentration that causes 50% growth inhibition, read-out: Baf3-FL-T2P760L
Method: Dimerization domain of Tel protein fused with JAK kinase domain was permanently transduced into Ba/F3 cells, whose proliferation is dependent on JAK activity in the absence of IL-3 induction. These engineered Ba/F3-FL-TYK2-P760L cells were used to monitor JAK inhibitory activities of the compounds in the cellular. Ba/F3 cells were cultured in RPMI-1640 (Corning) containing 10% fetal bovine serum. Cells were seeded at 2000/well of white flat bottom 96-well plates. The well containing medium only was used as background control. After 24h growth, cells were treated with compounds. The test compounds were dissolved in DMSO to a stock concentration of 20 mM. 3-fold serially diluted compounds for 9 concentrations with top concentration of 20 µM was added into the each well. The final DMSO concentration was 0.1%. The cells continued to grow at 37°C in 5% CO2 for 72 h after compound treatment. The viability was measured by cellular ATP determination using the Cell-Titer Glo luciferase reagent (Promega). The Luminescence value was recorded by a multi-label reader Envision (PerkinElmer). Inhibition Rate was calculated relative to vehicle (DMSO) treated control wells using following formula: % Inhibition = 100−(RLU_compound−RLU_blank)/(RLU_control−RLU_blank) × 100% [formula] wherein • RLU_compound = the relative light unit of cells treated with test compounds • RLU_blank = the relative light unit of medium with DMSO only • RLU_control = the relative light unit of cells treated with DMSO only
Table 4. Ba/F3-FL-TYK2-P760L Cells IC50 Values of Exemplary Compounds

T2 sequence (P29597 589-875 limits assumed): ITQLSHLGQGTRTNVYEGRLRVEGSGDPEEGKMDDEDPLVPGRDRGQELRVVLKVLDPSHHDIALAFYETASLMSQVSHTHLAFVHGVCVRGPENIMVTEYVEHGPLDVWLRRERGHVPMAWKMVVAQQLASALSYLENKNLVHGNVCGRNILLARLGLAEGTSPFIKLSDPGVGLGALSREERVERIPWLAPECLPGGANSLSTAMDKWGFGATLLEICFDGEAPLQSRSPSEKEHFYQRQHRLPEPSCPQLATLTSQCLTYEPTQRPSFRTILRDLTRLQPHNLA
T1 sequence (P23458 583-855 limits assumed): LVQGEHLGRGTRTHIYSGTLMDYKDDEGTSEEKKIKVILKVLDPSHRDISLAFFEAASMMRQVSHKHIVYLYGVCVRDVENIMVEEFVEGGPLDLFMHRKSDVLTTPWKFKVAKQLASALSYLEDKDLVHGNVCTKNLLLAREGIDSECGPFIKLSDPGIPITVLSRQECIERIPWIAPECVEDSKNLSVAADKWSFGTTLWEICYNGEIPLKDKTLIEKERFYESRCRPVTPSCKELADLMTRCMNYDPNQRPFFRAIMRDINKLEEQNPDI

Row | Structure (SMILES) | IC50 (JAK1-JH2 domain) [nM] | IC50 (TYK2-JH2 domain) [nM] | JAK1/TYK2 selectivity (TYK2-JH2 domain) | IC50 [1] [nM] | IC50 ([1]; Mus musculus, BaF3, 72 h) [nM]
1 | [2H]C([2H])([2H])NC(=O)c1cnc(NC(=O)[C@@H]2C[C@@H]2F)cc1Nc1cnn2ccc(C(O)C(F)(F)F)c(OC)c12 (single isomer, unassigned) [Example 15B, 6-((1S,2S)-2-fluorocyclopropane-1-carboxamido)-4-((4-methoxy-5-((R*)-2,2,2-trifluoro-1-hydroxyethyl)pyrazolo[1,5-a]pyridin-3-yl)amino)-N-(methyl-d3)nicotinamide] | 20 | 0.375 | 53.3 | 870 | 
2 | [2H]C([2H])([2H])NC(=O)c1cnc(NC(=O)C2CC23CC3)cc1Nc1cnn2ccc([C@H](O)C(F)(F)F)c(OC)c12 (single isomer, unassigned) [Example 32B, 4-((4-Methoxy-5-((S)-2,2,2-trifluoro-1-hydroxyethyl)pyrazolo[1,5-a]pyridin-3-yl)amino)-N-(methyl-d3)-6-((R*)-spiro[2.2]pentane-1-carboxamido)nicotinamide] | 11.5 | 0.108 | 106.2 | 27.3 | 
3 | CCn1nc(Nc2cc(NC(=O)C3CC3)ncc2C(=O)OC)c2c(OC)c(C(OC)C(F)(F)F)ccc21 (single isomer, unassigned) [Example 66A, Methyl (R*)-6-(cyclopropanecarboxamido)-4-((1-ethyl-4-methoxy-5-(2,2,2-trifluoro-1-methoxyethyl)-1H-indazol-3-yl)amino)nicotinate] | > 298 | 2.81 | 106.23 |  | 
4 | COC(=O)c1cnc(NC(=O)C2CC2)cc1Nc1nsc2ccc(C(OC)C(F)(F)F)c(OC)c12 (single isomer, unassigned) [Example 67A, Methyl (S*)-6-(cyclopropanecarboxamido)-4-((4-methoxy-5-(2,2,2-trifluoro-1-methoxyethyl)benzo[d]isothiazol-3-yl)amino)nicotinate] | 18.6 | 0.21 | 88.72 |  | 
5 | COC(=O)c1cnc(NC(=O)C2CC2)cc1Nc1nsc2ccc(C(OC)C(F)(F)F)c(OC)c12 (single isomer, unassigned) [Example 67B, Methyl (R*)-6-(cyclopropanecarboxamido)-4-((4-methoxy-5-(2,2,2-trifluoro-1-methoxyethyl)benzo[d]isothiazol-3-yl)amino)nicotinate] | 119 | 0.32 | 372.97 |  | 
6 | CCn1nc(Nc2cc(NC(=O)C3CC3)ncc2C(=O)OC)c2c(OC)c(C(O)C(F)(F)F)ccc21 (single isomer, unassigned) [Example 70B, Methyl (R*)-6-(cyclopropanecarboxamido)-4-((1-ethyl-4-methoxy-5-(2,2,2-trifluoro-1-hydroxyethyl)-1H-indazol-3-yl)amino)nicotinate] | 47.2 | 2.12 | 22.26 |  | 
7 | [2H]C([2H])([2H])CC(=O)c1cnc(NC(=O)C2CC2)cc1Nc1nn(C)c2ccc([C@@H](O)C(F)(F)F)c(OC)c12 [Example 54B, (R)-N-(4-((4-methoxy-1-methyl-5-(2,2,2-trifluoro-1-hydroxyethyl)-1H-indazol-3-yl)amino)-5-(propanoyl-3,3,3-d3)pyridin-2-yl)cyclopropanecarboxamide] | 7.08 | 0.433 | 16.36 |  | 
8 | [2H]C([2H])([2H])n1nc(Nc2cc(NC(=O)C3CC3)ncc2C(=O)OC)c2c(OC)c(C(OC)C(F)F)ccc21 (stereo not shown) [Example 69, Methyl 6-(cyclopropanecarboxamido)-4-((5-(2,2-difluoro-1-methoxyethyl)-4-methoxy-1-(methyl-d3)-1H-indazol-3-yl)amino)nicotinate] | 14.9 | 0.13 | 114.31 |  | 
9 | CCONC(=O)c1cnc(NC(=O)C2CC2)cc1Nc1nn(C)c2ccc(C(OC)C(F)(F)F)c(OC)c12 (stereo not shown) [Example 75, 6-(Cyclopropanecarboxamido)-N-ethoxy-4-((4-methoxy-1-methyl-5-(2,2,2-trifluoro-1-methoxyethyl)-1H-indazol-3-yl)amino)nicotinamide] | 24.7 | 0.09 | 274.63 |  | 
10 | CCOC(=O)c1nnc(NC(=O)C2CC2)cc1Nc1cccc(-c2ncn(C)n2)c1OC [Example 86, Ethyl 6-(cyclopropanecarboxamido)-4-((2-methoxy-3-(1-methyl-1H-1,2,4-triazol-3-yl)phenyl)amino)pyridazine-3-carboxylate] | > 298 | > 298 |  |  | 
11 | [2H]C([2H])([2H])OC(=O)c1nnc(NC(=O)C2CC2)cc1Nc1nc2ccc(N3CC(OC)C3)cn2n1 [Example 125, Methyl-d3 6-(cyclopropanecarboxamido)-4-((6-(3-methoxyazetidin-1-yl)-[1,2,4]triazolo[1,5-a]pyridin-2-yl)amino)pyridazine-3-carboxylate] | > 298 | 52.4 | >5.70 |  | 
12 | COC(=O)c1cnc(NC(=O)C2CC2)cc1Nc1nn(C(F)(F)F)c2ccc(C(OC)C(F)(F)F)c(OC)c12 (stereo not shown) [Example 163, Methyl 6-(cyclopropanecarboxamido)-4-((4-methoxy-5-(2,2,2-trifluoro-1-methoxyethyl)-1-(trifluoromethyl)-1H-indazol-3-yl)amino)nicotinate] |  | 0.488 |  |  | 56.1
13 | COC(=O)c1cnc(NC(=O)C2CC2)cc1Nc1nn(C)c2ccc(CO)c(OC)c12 [Example 164, Methyl 6-(cyclopropanecarboxamido)-4-((5-(hydroxymethyl)-4-methoxy-1-methyl-1H-indazol-3-yl)amino)nicotinate] |  | 0.481 |  |  | 50.1
14 | COC(=O)c1cnc(NC(=O)C2CC2)cc1Nc1nn(C)c2ccc(C(OC)C(C)OC)c(OC)c12 (stereo not shown) [Example 165, Methyl 6-(cyclopropanecarboxamido)-4-((5-(1,2-dimethoxypropyl)-4-methoxy-1-methyl-1H-indazol-3-yl)amino)nicotinate] |  | 2.71 |  |  | 281
15 | COC(=O)c1cnc(NC(=O)C2CC2)cc1Nc1nn(C)c2ccc([C@H](OC)C(C)OC)c(OC)c12 (stereo partly drawn) [Example 166, Methyl 6-(cyclopropanecarboxamido)-4-((5-((1S)-1,2-dimethoxypropyl)-4-methoxy-1-methyl-1H-indazol-3-yl)amino)nicotinate] |  | 1.11 |  |  | 113
16 | CCC(F)(F)c1cnc(NC(=O)C2CC2)cc1Nc1nccc2c1N(C)C(C)c1nn(C)nc1-2 (stereo not shown) [Example 178, N-(5-(1,1-Difluoropropyl)-4-((2,4,5-trimethyl-4,5-dihydro-2H-[1,2,3]triazolo[4,5-c][1,7]naphthyridin-6-yl)amino)pyridin-2-yl)cyclopropanecarboxamide] |  | 3.16 |  |  | 35
17 | COC(=O)c1cnc2cc1Nc1nn(c3ccc(C(OC)C(F)(F)F)c(OC)c13)CCOCc1nc(ccc1F)N2 (stereo not shown) [Example 179, Methyl 12-fluoro-23-methoxy-22-(2,2,2-trifluoro-1-methoxyethyl)-15-oxa-2,6,8,18,25,26-hexaazapentacyclo[16.6.1.1^{3,7}.1^{9,13}.0^{19,24}]heptacosa-1(25),3(27),4,6,9,11,13(26),19,21,23-decaene-4-carboxylate] |  | 0.481 |  |  | 30.9
18 | [2H]C([2H])([2H])NC(=O)c1cnc(NC(=O)C2CC23CC3)cc1Nc1nn(C)c2ccc([C@H](O)C(F)(F)F)c(OC)c12 (stereo partly drawn) [Example 199, 4-((4-Methoxy-1-methyl-5-((S)-2,2,2-trifluoro-1-hydroxyethyl)-1H-indazol-3-yl)amino)-N-(methyl-d3)-6-(spiro[2.2]pentane-1-carboxamido)nicotinamide] | 5.58 | 0.091 | 61.34 |  | 
